One experiment concerns the target EZH2 (Homo sapiens, UniProt Q15910). In words: Inhibitory activity against EZH2 methyltransferase (radiometric scintillation proximity assay).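 Also: Read-out is substrate peptide methylation, captured on streptavidin-coated SPA beads and counted by scintillation, with the reaction run in Tris-HCl buffer at pH 8.0 containing 1% DMSO.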 The following applies: Enzyme inhibitory activity (IC50, nM) EZH2, 2.3 nmol/L enzyme, 90 minutes, room temperature. Background: In a scintillation proximity assay essentially only radioactivity close to the scintillant gives light.

The next experiment addresses T1, EZH1 (Homo sapiens, UniProt Q92800).
T1 construct: purchased Reaction Biology Corp. (contract assay)
The experiment in a line: Inhibitory activity against EZH1 methyltransferase (radiometric scintillation proximity assay).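 Also: Read-out is methylation of a substrate peptide, captured on streptavidin-coated SPA beads and counted by scintillation, in Tris-HCl buffer at pH 8.0 with 1% DMSO.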 Type of experiment: biochemical. The following applies: 2.3 nmol/L enzyme, 90 minutes, room temperature.

For experiment [1], the system named is KARPAS-422 (EZH2 Y641N mutation). In words: Cell growth inhibition test, KARPAS-422. Type of experiment: cell-based. The following applies: Homo sapiens, KARPAS-422, 168 h, KARPAS-422, culture time 7 days; read-out: Cell growth inhibitory activity (GI50, nM) KARPAS-422 (EZH2 Y641N mutation). On the procedure: Each type of the cultured cells was seeded in 6-well plates or 48-96 well plates, and subculture or medium replacement was performed every 3 to 4 days. Next, the cells were subcultured for a total of 7 to 14 days, and then seeded in 96-well plates. 3 to 5 days before the measurement of the effect, the cells were seeded in 96-well plates, and then the absorbance (Tz) on the day of seeding was measured. The absorbance after the reaction was measured by the plate reader device Synergy NeoAlpha (Biotek) using Cell-Titer-Glo Cell Viability Assay (Promega, G7573) according to the attached manual. Based on the absorbance (Tz) measured on the seeding day and the absorbance of each of the DMSO-treated group (C) and the sample-added group (Ti) measured on the day of effect determination, the percentage of cell proliferation inhibition was calculated according to the following Equation 1. [(Ti−Tz)/(C−Tz)]×100 for concentrations for which Ti≥Tz […] for concentrations for which Ti<Tz. [Equation 1]

The structures appear in SMILES notation.

EZH2, sequence (Q15910 whole entry): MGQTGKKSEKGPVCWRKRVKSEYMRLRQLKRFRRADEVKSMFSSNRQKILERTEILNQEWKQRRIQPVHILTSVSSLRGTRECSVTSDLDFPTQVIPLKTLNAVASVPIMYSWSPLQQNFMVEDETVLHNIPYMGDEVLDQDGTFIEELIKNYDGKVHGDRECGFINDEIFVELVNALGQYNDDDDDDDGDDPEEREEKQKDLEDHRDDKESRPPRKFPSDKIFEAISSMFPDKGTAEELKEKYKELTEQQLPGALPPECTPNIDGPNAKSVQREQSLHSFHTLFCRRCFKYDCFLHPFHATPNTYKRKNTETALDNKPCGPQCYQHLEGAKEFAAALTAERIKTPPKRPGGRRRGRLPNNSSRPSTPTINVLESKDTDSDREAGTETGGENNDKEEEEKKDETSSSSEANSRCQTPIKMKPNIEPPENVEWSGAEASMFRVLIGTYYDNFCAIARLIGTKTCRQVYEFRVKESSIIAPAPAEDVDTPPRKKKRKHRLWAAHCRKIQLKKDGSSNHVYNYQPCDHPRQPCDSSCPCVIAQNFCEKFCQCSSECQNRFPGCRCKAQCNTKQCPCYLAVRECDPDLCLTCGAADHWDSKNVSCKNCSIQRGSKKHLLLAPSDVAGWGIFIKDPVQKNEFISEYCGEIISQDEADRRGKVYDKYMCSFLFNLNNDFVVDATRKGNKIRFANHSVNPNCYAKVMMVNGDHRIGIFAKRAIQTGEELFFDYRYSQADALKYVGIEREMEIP
EZH2, sequence (O75530 whole entry partner): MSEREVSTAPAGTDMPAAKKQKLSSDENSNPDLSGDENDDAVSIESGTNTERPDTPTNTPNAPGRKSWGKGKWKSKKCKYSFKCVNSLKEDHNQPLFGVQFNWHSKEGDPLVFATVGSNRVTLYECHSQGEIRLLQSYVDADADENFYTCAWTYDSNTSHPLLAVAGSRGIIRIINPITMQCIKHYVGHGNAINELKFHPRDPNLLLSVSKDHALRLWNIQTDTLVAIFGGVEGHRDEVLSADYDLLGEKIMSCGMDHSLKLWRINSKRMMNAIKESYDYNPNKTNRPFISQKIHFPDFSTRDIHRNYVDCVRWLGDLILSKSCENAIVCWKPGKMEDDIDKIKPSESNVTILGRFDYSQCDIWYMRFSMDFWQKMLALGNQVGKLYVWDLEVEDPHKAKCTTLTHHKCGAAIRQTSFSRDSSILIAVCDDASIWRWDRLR
EZH2, sequence (Q15022 whole entry partner): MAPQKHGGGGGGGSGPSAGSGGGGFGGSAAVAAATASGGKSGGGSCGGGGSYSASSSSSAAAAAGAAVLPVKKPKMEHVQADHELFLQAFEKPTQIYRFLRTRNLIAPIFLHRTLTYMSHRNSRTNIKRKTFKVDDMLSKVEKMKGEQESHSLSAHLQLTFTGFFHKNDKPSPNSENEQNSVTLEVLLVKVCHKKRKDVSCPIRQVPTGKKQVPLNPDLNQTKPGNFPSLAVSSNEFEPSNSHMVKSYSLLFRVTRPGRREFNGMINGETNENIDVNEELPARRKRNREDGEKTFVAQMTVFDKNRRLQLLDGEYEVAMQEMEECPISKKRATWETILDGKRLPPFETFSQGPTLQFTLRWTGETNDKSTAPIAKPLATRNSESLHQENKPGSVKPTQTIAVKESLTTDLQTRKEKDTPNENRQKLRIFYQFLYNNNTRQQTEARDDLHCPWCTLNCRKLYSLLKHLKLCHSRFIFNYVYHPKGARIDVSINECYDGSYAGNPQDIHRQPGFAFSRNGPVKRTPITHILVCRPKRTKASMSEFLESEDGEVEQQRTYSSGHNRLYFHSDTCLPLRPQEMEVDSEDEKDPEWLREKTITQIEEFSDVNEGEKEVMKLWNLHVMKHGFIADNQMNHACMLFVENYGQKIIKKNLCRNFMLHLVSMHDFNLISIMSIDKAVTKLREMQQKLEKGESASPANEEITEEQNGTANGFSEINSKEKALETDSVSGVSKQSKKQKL
EZH2, sequence (Q09028 whole entry partner): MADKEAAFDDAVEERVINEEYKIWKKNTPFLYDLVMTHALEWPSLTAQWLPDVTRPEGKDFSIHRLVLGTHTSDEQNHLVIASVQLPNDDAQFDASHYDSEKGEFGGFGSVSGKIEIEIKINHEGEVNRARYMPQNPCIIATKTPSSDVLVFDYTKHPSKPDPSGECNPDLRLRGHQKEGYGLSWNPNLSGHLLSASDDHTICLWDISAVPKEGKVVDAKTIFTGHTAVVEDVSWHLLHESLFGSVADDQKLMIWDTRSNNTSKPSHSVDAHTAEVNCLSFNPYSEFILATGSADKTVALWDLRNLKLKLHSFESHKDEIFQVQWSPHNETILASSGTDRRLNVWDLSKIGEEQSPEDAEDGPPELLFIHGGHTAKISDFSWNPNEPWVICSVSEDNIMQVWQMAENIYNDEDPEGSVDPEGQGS
EZH2, sequence (Q6ZN18 whole entry partner): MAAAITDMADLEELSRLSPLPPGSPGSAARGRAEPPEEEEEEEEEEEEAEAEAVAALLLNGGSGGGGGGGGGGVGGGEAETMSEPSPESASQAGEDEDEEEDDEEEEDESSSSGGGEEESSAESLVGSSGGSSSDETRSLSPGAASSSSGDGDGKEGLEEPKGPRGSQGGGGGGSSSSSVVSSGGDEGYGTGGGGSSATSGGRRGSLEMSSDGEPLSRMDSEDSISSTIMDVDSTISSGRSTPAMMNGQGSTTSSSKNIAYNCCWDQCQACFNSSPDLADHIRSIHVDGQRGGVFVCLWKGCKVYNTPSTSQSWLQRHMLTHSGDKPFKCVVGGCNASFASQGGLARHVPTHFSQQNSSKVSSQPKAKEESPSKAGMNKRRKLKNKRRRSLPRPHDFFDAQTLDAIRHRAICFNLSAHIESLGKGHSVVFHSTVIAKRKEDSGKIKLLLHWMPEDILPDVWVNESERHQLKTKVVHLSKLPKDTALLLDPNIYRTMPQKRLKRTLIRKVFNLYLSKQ
T1 sequence (Q92800 whole entry): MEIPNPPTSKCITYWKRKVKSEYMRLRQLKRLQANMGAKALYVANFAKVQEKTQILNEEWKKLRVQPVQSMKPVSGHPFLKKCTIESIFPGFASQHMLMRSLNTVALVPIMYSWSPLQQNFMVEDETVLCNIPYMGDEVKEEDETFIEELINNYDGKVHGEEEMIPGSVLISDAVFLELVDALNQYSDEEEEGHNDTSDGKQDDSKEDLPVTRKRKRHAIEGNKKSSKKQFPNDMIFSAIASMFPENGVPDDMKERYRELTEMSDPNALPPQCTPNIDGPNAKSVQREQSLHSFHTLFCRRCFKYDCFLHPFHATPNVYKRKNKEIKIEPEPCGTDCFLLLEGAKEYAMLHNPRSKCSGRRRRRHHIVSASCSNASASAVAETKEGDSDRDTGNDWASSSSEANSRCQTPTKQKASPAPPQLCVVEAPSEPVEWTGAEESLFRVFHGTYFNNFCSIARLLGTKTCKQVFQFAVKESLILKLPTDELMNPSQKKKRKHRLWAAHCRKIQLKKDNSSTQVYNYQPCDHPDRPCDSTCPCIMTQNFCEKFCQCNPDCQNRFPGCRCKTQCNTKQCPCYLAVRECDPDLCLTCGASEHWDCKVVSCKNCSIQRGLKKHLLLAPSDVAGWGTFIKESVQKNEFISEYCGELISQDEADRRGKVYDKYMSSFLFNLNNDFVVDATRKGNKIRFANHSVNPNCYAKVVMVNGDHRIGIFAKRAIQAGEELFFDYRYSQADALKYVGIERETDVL
T1 sequence (O75530 whole entry partner): as the sequence (O75530 whole entry partner) above
T1 sequence (Q15022 whole entry partner): as the sequence (Q15022 whole entry partner) above
T1 sequence (Q09028 whole entry partner): as the sequence (Q09028 whole entry partner) above
T1 sequence (Q6ZN18 whole entry partner): as the sequence (Q6ZN18 whole entry partner) above
Protocol for EZH1: The inhibitory activities of the synthetic compounds against EZH1 or EZH2 methyltransferase were measured. The experiment was conducted by Reaction Biology Corp., and the activity of EZH1 or EZH2 was measured using a radiometric scintillation proximity assay. […] The reaction buffer consisted of 50 mmol/L Tris-HCl (pH 8.0), 50 mmol/L NaCl, 1 mmol/L EDTA, 1 mmoL/L DTT, 1 mmol/L PMSF, and 1% DMSO. Trichloroacetic acid was added to terminate the reaction, and PVT streptavidin-coated SPA beads were added to each reaction solution, followed by further reaction at room temperature for 1 hour again. The methylation value of the substrate peptide was measured using the TopCount NXT plate reader.

The term IC50 denotes the concentration at which inhibition is half-maximal. With `Cc1cc(C)c(CN2CCc3cc4c(c(C)c3C2=O)OC(C)([C@H]2CC[C@H](N(C)C)CC2)O4)c(=O)[nH]1` (stereo partly drawn) [Compound 1, 6-((4,6-dimethyl-2-oxo-1,2-dihydropyridin-3-yl)methyl)-2(trans-4-(dimethylamino)cyclohexyl)-2,4-dimethyl-7,8-dihydro-[1,3]dioxolo[4,5-g]isoquinolin-5(6H)-one], the IC50 was 14.3 nM on EZH2 and 97.6 nM on EZH1.

Turning to `Cc1cc(C)c(CN2CCc3cc4c(cc3C2=O)OC(C)([C@H]2CC[C@H](N(C)C)CC2)O4)c(=O)[nH]1` (stereo partly drawn) [Compound 2, 6-((4,6-dimethyl-2-oxo-1,2-dihydropyridin-3-yl)methyl)-2(trans-4-(dimethylamino)cyclohexyl)-2-methyl-7,8-dihydro-[1,3]dioxolo[4,5-g]isoquinolin-5(6H)-one], the IC50 came to 7.9 nM at EZH2 and 371 nM against EZH1.

What is called GI50 is the concentration at which growth is held to half of that of the control. As to `Cc1cc(C)c(CN2CCc3c(Cl)c4c(c(Cl)c3C2=O)OC(C)([C@H]2CC[C@H](N(C)C)CC2)O4)c(=O)[nH]1` (stereo partly drawn) [Compound 7, 4,9-dichloro-6-((4,6-dimethyl-2-oxo-1,2-dihydropyridin-3-yl)methyl)-2-(trans-4-(dimethylamino)cyclohexyl)-2-methyl-7,8-dihydro-[1,3]dioxolo[4,5-g]isoquinolin-5(6H)-one], the GI50 in experiment [1] was 4.8 nM. For the same compound, the IC50 stood at 3.8 nM against EZH2 and 54 nM at EZH1.

Consider `CCCc1cc(C)[nH]c(=O)c1CN1CCc2c(Cl)c3c(c(C)c2C1=O)OC(C)([C@H]1CC[C@H](N(C)C)CC1)O3` (stereo partly drawn) [Compound 14, 9-chloro-2-(trans-4-(dimethylamino)cyclohexyl)-2,4-dimethyl-6-((6-methyl-2-oxo-4-propyl-1,2-dihydropyridin-3-yl)methyl)-7,8-dihydro-[1,3]dioxolo[4,5-g]isoquinolin-5(6H)-one], for which the GI50 in experiment [1] was determined as 50 nM. The values for the IC50 on EZH2 and against EZH1 were 3.2 nM and 27 nM, respectively.

As for `CCN[C@H]1CC[C@H](C2(C)Oc3c(C)c4c(c(Cl)c3O2)CCN(Cc2c(C)cc(C)[nH]c2=O)C4=O)CC1` (stereo partly drawn) [Compound 15, 9-chloro-6-((4,6-dimethyl-2-oxo-1,2-dihydropyridin-3-yl)methyl)-2-(trans-4-(ethylamino)cyclohexyl)-2,4-dimethyl-7,8-dihydro-[1,3]dioxolo[4,5-g]isoquinolin-5(6H)-one], the GI50 in experiment [1] was determined as 18 nM. The IC50 on EZH2 was found to be 3.6 nM; at EZH1 it was 65 nM.

`CCN(CC)[C@H]1CC[C@H](C2(C)Oc3c(C)c4c(c(Cl)c3O2)CCN(Cc2c(C)cc(C)[nH]c2=O)C4=O)CC1` (stereo partly drawn) [Compound 16, 9-chloro-2-(trans-4-(diethylamino)cyclohexyl)-6-((4,6-dimethyl-2-oxo-1,2-dihydropyridin-3-yl)methyl)-2,4-dimethyl-7,8-dihydro-[1,3]dioxolo[4,5-g]isoquinolin-5(6H)-one]: the GI50 in experiment [1] stood at 68 nM. Also, the IC50 is 11 nM against EZH2 and 89 nM on EZH1.

As to `Cc1cc(C)c(CN2CCc3c(Cl)c4c(c(C)c3C2=O)OC(C)([C@H]2CC[C@H](N3CCCCC3)CC2)O4)c(=O)[nH]1` (stereo partly drawn) [Compound 17, 9-chloro-6-((4,6-dimethyl-2-oxo-1,2-dihydropyridin-3-yl)methyl)-2,4-dimethyl-2-(trans-4-(piperidin-1-yl)cyclohexyl)-7,8-dihydro-[1,3]dioxolo[4,5-g]isoquinolin-5(6H)-one], the GI50 in experiment [1] was 52 nM. In addition, the 50% inhibitory concentration (IC50) against EZH2 stood at 5.6 nM; at EZH1, 74 nM.

In the case of `CC[C@H](O)C(=O)N[C@H]1CC[C@H](C2(C)Oc3c(C)c4c(c(Cl)c3O2)CCN(Cc2c(C)cc(C)[nH]c2=O)C4=O)CC1` (stereo partly drawn) [Compound 19], the GI50 in experiment [1] stood at 440 nM. It took 4.4 nM to reach half-maximal inhibition at EZH2 (IC50).

For `Cc1cc(C)c(CN2CCc3c(Cl)c4c(c(C)c3C2=O)OC(C)(C2CCCC2)O4)c(=O)[nH]1` (stereo not drawn) [Compound 23, 9-chloro-2-cyclopentyl-6-((4,6-dimethyl-2-oxo-1,2-dihydropyridin-3-yl)methyl)-2,4-dimethyl-7,8-dihydro-[1,3]dioxolo[4,5-g]isoquinolin-5(6H)-one], the GI50 in experiment [1] is above 1000 nM. The IC50 at EZH2 amounted to 4.4 nM.

For `Cc1cc(C)c(CN2CCc3c(Cl)c4c(c(C)c3C2=O)OC(C)(c2ccc(N(C)C)cc2)O4)c(=O)[nH]1` (stereo not drawn) [Compound 25, 9-chloro-6-((4,6-dimethyl-2-oxo-1,2-dihydropyridin-3-yl)methyl)-2-(4-(dimethylamino)phenyl)-2,4-dimethyl-7,8-dihydro-[1,3]dioxolo[4,5-g]isoquinolin-5(6H)-one], the IC50 was found to be 11 nM on EZH2 and 166 nM against EZH1.

In the case of `Cc1cc(C)c(CN2CCc3c(Cl)c4c(c(C)c3C2=O)OC(C)(c2c(C)noc2C)O4)c(=O)[nH]1` (stereo not drawn) [Compound 27], the IC50 against EZH2 came to 3.9 nM; at EZH1, 310 nM.

On to `Cc1cc(C)c(CN2CCc3c(C)c4c(c(C)c3C2=O)OC(C)([C@H]2CC[C@H](N)CC2)O4)c(=O)[nH]1` (stereo partly drawn) [Compound 38, 2-(trans-4-aminocyclohexyl)-6-((4,6-dimethyl-2-oxo-1,2-dihydropyridin-3-yl)methyl)-2,4,9-trimethyl-7,8-dihydro-[1,3]dioxolo[4,5-g]isoquinolin-5(6H)-one], for which the concentration for half-maximal inhibition (IC50) against EZH2 was 4.4 nM; on EZH1 it was 54 nM.

For `Cc1cc(C)c(CN2CCc3c(C)c4c(c(C)c3C2=O)OC(C)(C2CCCCC2)O4)c(=O)[nH]1` (stereo not drawn) [Compound 44, 2-cyclohexyl-6-((4,6-dimethyl-2-oxo-1,2-dihydropyridin-3-yl)methyl)-2,4,9-trimethyl-7,8-dihydro-[1,3]dioxolo[4,5-g]isoquinolin-5(6H)-one], the IC50 is 0.4 nM against EZH2 and 34 nM against EZH1.

Take `CCN[C@H]1CC[C@H](C2(C)Oc3c(C)c4c(c(C)c3O2)C(=O)N(Cc2c(OC)cc(C)[nH]c2=O)CC4)CC1` (stereo partly drawn) [Compound 45, 2-(trans-4-(ethylamino)cyclohexyl)-6-((4-methoxy-6-methyl-2-oxo-1,2-dihydropyridin-3-yl)methyl)-2,4,9-trimethyl-7,8-dihydro-[1,3]dioxolo[4,5-g]isoquinolin-5(6H)-one]: the figures for the IC50 on EZH2 and on EZH1 were 6.2 nM and 18 nM, respectively.

As for `CCN(CC)[C@H]1CC[C@H](C2(C)Oc3c(C)c4c(c(C)c3O2)C(=O)N(Cc2c(OC)cc(C)[nH]c2=O)CC4)CC1` (stereo partly drawn) [Compound 46, 2-(trans-4-(diethylamino)cyclohexyl)-6-((4-methoxy-6-methyl-2-oxo-1,2-dihydropyridin-3-yl)methyl)-2,4,9-trimethyl-7,8-dihydro-[1,3]dioxolo[4,5-g]isoquinolin-5(6H)-one], the values for the IC50 against EZH2 and at EZH1 were 9.7 nM and 16 nM, respectively.

As for `CCN(C)[C@H]1CC[C@H](C2(C)Oc3c(C)c4c(c(C)c3O2)C(=O)N(Cc2c(OC)cc(C)[nH]c2=O)CC4)CC1` (stereo partly drawn) [Compound 47], the results for the IC50 against EZH2 and on EZH1 were 7 nM and 20 nM, respectively.

For the compound `Cc1cc(C)c(CN2CCc3c(c(C)c4c(c3-c3ccc(CN5CCOCC5)cc3)OC(C)([C@H]3CC[C@H](N(C)C)CC3)O4)C2=O)c(=O)[nH]1` (stereo partly drawn) [Compound 55, 6-((4,6-dimethyl-2-oxo-1,2-dihydropyridin-3-yl)methyl)-2-(trans-4-(dimethylamino)cyclohexyl)-2,4-dimethyl-9-(4-(morpholinomethyl)phenyl)-7,8-dihydro-[1,3]dioxolo[4,5-g]isoquinolin-5(6H)-one], the IC50 against EZH2 is 5.6 nM; at EZH1, 26 nM.

The values are drawn from patent US12344618B2, “Heterotricyclic derivative compound and use of same” (HANMI PHARMACEUTICAL CO., LTD., priority 2019, dated 2025).
